# Data: patent US20080075688A1, “Use of non-digestible polymeric foams to sequester ingested materials thereby inhibiting their absorption by the body” (The Procter & Gamble Company, priority 2003, published 2008)
# Key:
# [1] = tested on: rats; experiment: Fat excretion in rats on a high-fat diet (30% of calories as corn oil) for 9 days with XENICAL, Example 4; format: in vivo, rat; conditions: 400 ppm XENICAL without or with 0.5% HIPE foam in diet
# Method: (§1) Three groups of rats were matched by weight and receive a high-fat diet (30% of calories as corn oil) for 9 days. One of the groups also received 400 ppm XENICAL® as part of the diet. The third group received both 400 ppm XENICAL® and 0.5% ground particulate HIPE foam from Example 1, Sample 1 as part of the diet. Total diet intake was measured throughout the study, and fecal output was measured in tail cups fitted to the animals during the last two days of the study. The pooled two-day collection of feces from each animal was analyzed for fat content according to AOAC method 954.04, published by AOAC International, Gaithersburg, Md.
# [2] = tested on: rats; experiment: Observer rating of oil on the fur of rats, Example 4; format: in vivo, rat
# Method: as §1, with “Md. On days 5 and 7 of the study, the appearance of each animal was judged by two observers unaware of the dietary treatment of the animals. These observers assigned numerical values that increased with the amount of oil seen on the fur. A value of 1 was used to describe animals with no oil apparent on their fur. A value of 5 was used to describe animals with more than 90% of their fur coated with oil. Values of 2, 3, or 4, as appropriate, were assigned to animals with intermediate amounts of oil on the fur.” for “Md.”
smiles,measurement,setting,value
"CCCCCCCCCCC[C@@H](C[C@@H]1OC(=O)[C@H]1CCCCCC)OC(=O)[C@H](CC(C)C)NC=O [XENICAL ®, tetrahydrolipstatin]",Fat excretion versus the control group,[1],significantly more fat than the control group
same,Mean Total 48 hour Lipid Excretion,"[1]; corn oil diet 9 days, feces of last two days, control 0.16",2.6 g
same,Excreted Fat (as % Ingested Fat),"[1]; corn oil diet 9 days, feces of last two days, control 3.9",59.1 % Ingested Fat
same,Oil on fur rating compared with the other groups,[2]; 400 ppm XENICAL only versus control and XENICAL + foam,significantly different relative to the other two groups
same,Average Rating (oil on fur),"[2]; days 5 and 7, two blinded observers, scale 1 (no oil apparent on fur) to 5 (more than 90% of fur coated), control 1.03",4.41
